Values of other authors in patent publication US20090163510A1 (Bristol-Myers Squibb Company, priority 2005, published 2009).
Where a name gives a salt, the structure may show the parent alone. Read-outs that look alike come from different tables or passages of the source.

System: CML
Details: CML patients, Kantarjian et al.

## Cc1ccc(NC(=O)c2ccc(CN3CCN(C)CC3)cc2)cc1Nc1nccc(-c2cccnc2)n1 [imatinib, Imatinib mesylate]
Blastic phase
  estimated 2-year incidence of resistance: 80%
Chronic phase post-interferon failure
  estimated 2-year incidence of resistance: 10%
